Counter-ions that a name gives are not always drawn. Like-named read-outs stand apart in the source and are kept apart here.
Tests used:
pTau [1] = experiment: primary high-content screening (HCS) for inhibition of pTau accumulation in neuron cells in 3D culture; type: cell-based
Source text: This workflow to identify the mechanisms underlying those screening hits can be used to effectively discover more compounds that can generate similar phenotype. As a proof of concept, the transcriptomic profiles hosted by the Broad Institute'[…] warehouse^28-30 through the NIH LINCS program were used in the initial study.

canonical pathways = experiment: RNA-seq canonical pathway analysis of 3D AD #A5 cultures treated with anti-Aβ drugs; type: cell-based, human; conditions: AD #A5 DMSO vs treated
Source text: FIG. 7. […] Pearson correlations of global gene expression profile among 2D undifferentiated control ReN cells, 3D control (G2#B2on), AD #A5 (#A5, moderate Aβ42/40 ratio ˜0.2), AD #D4 (#D4, high Aβ42/40 ratio, ˜1.4), and AD #H10 (#H10, extra high Aβ42/40 ratio, ˜1.7). Units are log CPM. b. Volcano plots show −log10(FDR) vs log FC distribution for G2#B2 (control) vs AD #A5 (AD), AD #A5 DMSO vs AD #A5 BSI (BACE inhibitor, Ly2886721), and AD #A5 DMSO vs AD #A5 GSM (gamma secretase modulator, SGSM15606) transcriptomic signatures. […] Canonical pathway analysis between G2#B2 and AD #A5 (Ingenuity pathway analysis, Qiagen). d. Analysis of common canonical pathways. The pathway analysis among G2#B2 vs AD #A5, AD #A5 DMSO vs AD #A5 BSI, and AD #A5 DMSO vs AD #A5 GSM. Activation z-scores indicate that majority of decreased pathways in AD #A5 are restored by BSI and/or GSM treatments. e. […]
To examine the multiple single-clonal AD models, unbiased whole genome RNA-seq analyses were performed to compare gene expression profiles among the clonal AD models with different Aβ42/40 ratios, as compared to control 3D cultures and undifferentiated 2D control cells (FIG. 7a-d). […] Differential gene expression profile of 3D AD cultures were analyzed after treating anti-Aβ drugs (BACE1 inhibitor, Ly2886721; Gamma-secretase modulator (GSM), GSM15606) (FIG. 7b). […]

[2] = test system: insoluble p-tau species (pSer396/Ser404, pThr181); experiment: Western blot analysis in 3D AD models with high Aβ42/40 ratios; type: cell-based, human; conditions: various concentrations
Source text: (§1) FIG. 9. Validation of primary hit candidates. Primary hit candidates were confirmed using Western blot analysis (a) and quantitative immunofluorescence staining in 3D AD models with high Aβ42/40 ratios (#HReN and #A4H1) (b). PHF1 pSer396/Ser404 tau antibody was used to detect changes in phospho tau in 3D AD #HReN cells treated with DMSO vehicle, ebselen, or leflunomide.
(§2) In addition to MSD Mesoscale ELISA shown in FIG. 8, quantitative Western blot and immunofluorescence analysis were used to validate candidate drugs. […] Ebselen and leflunomide are compounds screened from original HCS screening of […] biologically active/FDA-approved drug library. […] Moreover, quantitative immunofluorescence staining was used to analyze p-tau changes after treating these compounds.

p-tau (pSer396/Ser404) = experiment: quantitative immunofluorescence staining in 3D AD models; type: cell-based, human; conditions: 5 μM for 3 weeks
Source text: as §1, §2

3D AD models = experiment: cellular viability and neurite networks in the immunofluorescence study; type: cell-based, human; conditions: 5 μM for 3 weeks
Source text: as §2

genes and pathways = experiment: whole genome RNAseq analysis after compound treatment versus control; type: cell-based
Source text: FIG. 10A-10B. […] PPI information was extracted from STRING database version 10.5 with the cutoff for confidence score at 0.4.
Given ebselen and leflunomide in FIG. 9, an unbiased whole genome RNAseq analysis was used to obtain transcriptomic profiles after the treatment of each compound and compare them separately to control conditions. For both treatments, a subset of genes and pathways show significant change (|log FC|>1.5) in the same direction over control condition. […] These 22 genes have 102 PPI pairs among them, and there are 7 genes directly connected to APP (coding Aβ) or MAPT (coding Tau).
It's worth noting that the enrichment of immune and inflammatory related pathway changes is consistent with the characteristics of the 3D cell model, as this system contains astrocytes, which is one of the brain innate immune cells. […] Also, neuroinflammatory pathways are highly unregulated in high Abeta42/40 lines (D4 and H10) as compared to A5 (similar to GA2) (data not shown).

primary neurons = experiment: time-lapse synaptogenesis assay (FM1-43 staining, KCl de-staining); type: cell-based
Method: FIG. 6. Time-lapse synaptogenesis assay identifies pre-synaptic hyperactivity caused by thiorphan's treatments.
A high content screening (HCS) is carried out on existing 3,000 known drugs and compounds to systematically characterize the effects of known drugs or bioactive compounds on the Parkinson's Disease (PD) induced pluripotent stem (iPS) cell model, with the aim to identify effective hits that can be validated in PD mouse models. […] Cells were stained with FM1-43 (FIG. 6A) and de-stained by KCl stimulation (FIG. 6B). Time-lapse imaging was carried out from the dye uptake until the synapses were completely de-stained. […] A similar assay is applied in iPS cells as well as neuron cell models for PD. In addition to using the prevalence of synaptogenesis as the main readout for the high content screening (HCS), the heterogeneous nature of stem cell differentiation is addressed by identifying and quantifying the prevalence of novel phenotypes other than stem cell and synaptogenesis based on morphological features. Such consideration of cell population heterogeneity brings deeper insight in the HCS and can help identify potential compounds that are causing specific type of differentiations benefiting cure of PD.

pTau [3] = experiment: cell-based validation in reformatted high content version of AD-in-a-dish model; conditions: 26 predicted compounds tested
Source text: FIG. 2. Pilot SMART screen used 20 primary hits to identify 5 new compound hits that inhibit pTau (phospho-Tau or phosphorylated Tau).
Twenty-two of the 38 aforementioned screening hits had LINCS data covering the perturbation profiles for at least 4 cell lines. From these twenty-two hits, 2 were eliminated because no known drug candidates ranked high enough based on transcriptomic similarities to these two primary hits; and 3 others were removed upon inspection of the compound properties of the predictions they made, i.e., the predicted drugs may be toxic or unfit for systematic use. Thus, the 17 primary hits were used to initiate a pilot run using the SMART framework. The cMAP algorithm^7 was used to rank all compounds in the LINCSCloud, based on the similarity of transcriptomic profiles to each of the 17 primary hits. If any compound was determined by cMAP algorithm to have a similarity score larger than 90 to at least one of the primary hits, it was identified as a hit candidate. After filtering based on pharmacology features, 85 candidates predicted by 17 primary hits remained; 26 of these 85 compounds were purchased for validation after analysis for pharmacology and medical practice features.

Question: How did the “inhibition of pTau accumulation (primary screen hit status)” value (from here on “inhibition of pTau accumulation”) (pTau [1]) turn out when `C/C(=C\c1ccc(C(=O)O)cc1)c1ccc2c(c1)C(C)(C)CCC2(C)C` [TTNPB] was run?
Answer: primary hit

Question: With ivermectin as the molecule, how does the “inhibition of pTau accumulation” value (pTau [1]) read?
Answer: top-3 hits

Question: What about the “inhibition of pTau accumulation” value (pTau [1]; listed as Ivermectin) of the same molecule?
Answer: most significant phenotype

Question: Which “pathways decreased in AD #A5 after treatment (activation z-scores)” value (canonical pathways) does the source give for `COc1nc(-c2cc(C)c(NC(C)c3ccc(F)cc3)nn2)ccc1-n1cnc(C)c1` (stereo not shown) [SGSM15606] here?
Answer: restored

Question: `NC1=N[C@@]2(c3cc(NC(=O)c4ccc(F)cn4)ccc3F)COC[C@H]2CS1` [Ly2886721] was tested. Which “pathways decreased in AD #A5 after treatment (activation z-scores)” value (canonical pathways) did it give?
Answer: restored

Question: With `Cc1oncc1C(=O)Nc1ccc(C(F)(F)F)cc1` [leflunomide] as the molecule, how does the “insoluble p-tau species (pSer396/Ser404, pThr181)” value [2] read?
Answer: significantly decreased

Question: What about the “p-tau (pSer396/Ser404) accumulation” value (p-tau (pSer396/Ser404)) of the same molecule?
Answer: robustly decreased

Question: And the “cellular viability and neurite networks” value (3D AD models)?
Answer: without affecting

Question: And the “pathways changed after treatment” value (genes and pathways; 5 of 6 pathways connected to 12 down-regulated genes)?
Answer: significantly down-regulated

Question: What about the “genes with significant change versus control” value (genes and pathways; |log FC|>1.5, shared by both treatments) of the same molecule?
Answer: 15 down-regulated and 7 up-regulated genes

Question: With `CC[N+](CC)(CC)CCOc1ccc(/C=C/c2ccccc2)cc1` [mg624] as the molecule, how does the “inhibition of pTau accumulation” value (pTau [1]) read?
Answer: top-3 hits

Question: Which “inhibition of pTau accumulation” value (pTau [1]) does the source give for `N=C(N)c1ccc(OCCCCCOc2ccc(C(=N)N)cc2)cc1` [pentamidine] here?
Answer: top-3 hits

Question: `Nc1ccc(-c2nc3ccc(-c4nc5ccc(N)cc5[nH]4)cc3[nH]2)cc1` [Ro90-7501] was tested. Which “inhibition of pTau accumulation” value (pTau [1]) did it give?
Answer: primary hits

Question: For `O=C(O)CNC(=O)C(CS)Cc1ccccc1` (stereo not shown) [thiorphan], which “pre-synaptic activity (FM dye uptake, automatic image quantification)” value (primary neurons) is on record?
Answer: causes pre-synaptic hyperactivity

Question: For `Oc1c(Cl)cc(Cl)c2cccnc12` [chloroxine], which “inhibition of pTau in validation” value (pTau [3]) is on record?
Answer: validated hits

Question: `C1CCC(C(CC2CCCCN2)C2CCCCC2)CC1` (stereo not shown) [Perhexiline, perhexiline maleate] was tested. Which “inhibition of pTau in validation” value (pTau [3]) did it give?
Answer: successful predictions

Source: patent US20190010533A1, “METHODS FOR SCREENING AND SELECTING TARGET AGENTS FROM MOLECULAR DATABASES” (The Methodist Hospital System, priority 2017, published 2019)
